Test results as given in US8747901B2 (Reata Pharmaceuticals, Inc., priority 2009, dated 2014).

Conditions: human, in vivo
Description: The synthetic triterpenoid bardoxolone methyl, also known as CDDO-Me and as “RTA 402,” has shown potent anti-inflammatory and anti-tumor properties in preclinical studies and in human clinical trials. […] In these studies bardoxolone methyl was administered orally in a crystalline form (“Form A”), once daily, at a variety of doses.

SMILES: COC(=O)[C@]12CCC(C)(C)C[C@H]1[C@H]1C(=O)C=C3[C@@]4(C)C=C(C#N)C(=O)C(C)(C)[C@@H]4CC[C@@]3(C)[C@]1(C)CC2 [Form A bardoxolone methyl, bardoxolone methyl]
- oral bioavailability: relatively low oral bioavailability
- tolerability profile (po): excellent tolerability profile with very few drug-related side effects
